Source: patent US20120045393A1 (priority 2009, published 2012)
Starred links: 1 amine or outer side, 2 acyl side, 3 side chain; linkers in the order of their positions; H or OH if unused. Non-standard residues stand in square brackets, D forms with d. Residues, ends and D or L forms follow the SMILES beside them. *: point of attachment. DOTA = O=C(O)CN1CCN(CC(=O)O)CCN(CC(=O)*)CCN(CC(=O)O)CC1; Bpa = N[C@@H](Cc1ccc(C(=O)c2ccccc2)cc1)C(=O)O; Ala(4-thiazolyl) = N[C@@H](Cc1cscn1)C(=O)O; d2Nal = N[C@H](Cc1ccc2ccccc2c1)C(=O)O; X2 = O=C(N(N[*:1])c1ccccn1)[*:2]; NHPh = c1ccc(N*)cc1; azaGly = NNC(=O)O; Sar = CNCC(=O)O

System: LHRH binding sites on human ovarian cancer cells (EFO-27)
Conditions: not given
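Note: Cell-associated radioactivity on confluent EFO-27 monolayers in 96-well plates, measured by microplate scintillation counting.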

SMILES	EC50
N=C(N)NCCC[C@H](NC(=O)[C@@H](Cc1ccc2ccccc2c1)NC(=O)CN1CCN(CC(=O)O)CCN(CC(=O)O)CCN(CC(=O)O)CC1)C(=O)N[C@@H](Cc1c[nH]c2ccccc12)C(=O)N[C@@H](CO)C(=O)N[C@@H](Cc1c[nH]cn1)C(=O)N[C@H](CCCNC(=N)N)C(=O)N[C@@H](Cc1c[nH]c2ccccc12)C(=O)N[C@@H](Cc1ccc(C(=O)c2ccccc2)cc1)C(=O)N1CCC[C@H]1C(=O)NCCOCCNC(=N)N [compound 2985]	0.46 µM
CN(CC(=O)N[C@@H](Cc1cscn1)C(=O)N[C@@H](Cc1c[nH]c2ccccc12)C(=O)N[C@@H](CO)C(=O)N[C@@H](Cc1c[nH]cn1)C(=O)N[C@H](CCCNC(=N)N)C(=O)N[C@@H](Cc1c[nH]c2ccccc12)C(=O)N[C@@H](Cc1ccc(C(=O)c2ccccc2)cc1)C(=O)N1CCC[C@H]1C(=O)NNC(N)=O)C(=O)CN1CCN(CC(=O)O)CCN(CC(=O)O)CCN(CC(=O)O)CC1 [BRU-2768] ({DOTA}-[Sar][Ala(4-thiazolyl)]WSH[dR]W[Bpa]P[azaGly]-NH2)	12.8 µM
CN(CC(=O)N[C@@H](Cc1c[nH]cn1)C(=O)N[C@@H](Cc1c[nH]c2ccccc12)C(=O)N[C@@H](CO)C(=O)N[C@@H](Cc1c[nH]cn1)C(=O)N[C@H](CCCNC(=N)N)C(=O)N[C@@H](Cc1c[nH]c2ccccc12)C(=O)N[C@@H](Cc1cscn1)C(=O)N1CCC[C@H]1C(=O)NNC(N)=O)C(=O)CN1CCN(CC(=O)O)CCN(CC(=O)O)CCN(CC(=O)O)CC1 [BRU-2742]	10 µM
N=C(N)NCCC[C@H](NC(=O)[C@@H](Cc1ccc2ccccc2c1)NC(=O)CN1CCN(CC(=O)O)CCN(CC(=O)O)CCN(CC(=O)O)CC1)C(=O)N[C@@H](Cc1c[nH]c2ccccc12)C(=O)N[C@@H](CO)C(=O)N[C@@H](Cc1c[nH]cn1)C(=O)N[C@H](CCCNC(=N)N)C(=O)N[C@@H](Cc1c[nH]c2ccccc12)C(=O)N[C@@H](Cc1ccc(C(=O)c2ccccc2)cc1)C(=O)N1CCC[C@H]1C(=O)NC(=N)N [compound 2984]	0.4 µM
CNCC(=O)N[C@@H](CCCNC(=N)N)C(=O)N[C@@H](Cc1c[nH]c2ccccc12)C(=O)N[C@@H](CO)C(=O)N[C@@H](Cc1c[nH]cn1)C(=O)N[C@H](CCCNC(=N)N)C(=O)N[C@@H](Cc1c[nH]c2ccccc12)C(=O)N[C@@H](Cc1ccc(C(=O)c2ccccc2)cc1)C(=O)N1CCC[C@H]1C(=O)NCCCCCNC(=O)CN1CCN(CC(=O)O)CCN(CC(=O)O)CCN(CC(=O)O)CC1 [BRU-3085]	0.23 to 0.5 µM
N=C(N)NCCC[C@H](NC(=O)[C@@H](Cc1ccc2ccccc2c1)NC(=O)CN1CCN(CC(=O)O)CCN(CC(=O)O)CCN(CC(=O)O)CC1)C(=O)N[C@@H](Cc1c[nH]c2ccccc12)C(=O)N[C@@H](CO)C(=O)N[C@@H](Cc1c[nH]cn1)C(=O)N[C@H](CCCNC(=N)N)C(=O)N[C@@H](Cc1c[nH]c2ccccc12)C(=O)N[C@@H](Cc1ccc(C(=O)c2ccccc2)cc1)C(=O)N1CCC[C@H]1C(=O)N[C@H](CO)Cc1ccccc1 [compound 2983]	0.45 µM
CNCC(=O)N[C@@H](CCCNC(=N)N)C(=O)N[C@@H](Cc1c[nH]c2ccccc12)C(=O)N[C@@H](CO)C(=O)N[C@@H](Cc1c[nH]cn1)C(=O)N[C@H](CCCNC(=N)N)C(=O)N[C@@H](Cc1c[nH]c2ccccc12)C(=O)N[C@@H](Cc1ccc(C(=O)c2ccccc2)cc1)C(=O)N1CCC[C@H]1C(=O)NCCCNC(=O)CN1CCN(CC(=O)O)CCN(CC(=O)O)CCN(CC(=O)O)CC1 [compound 3076]	0.75 ± 0.04 µM
CN(NC(=O)[C@@H]1CCCN1C(=O)[C@H](Cc1ccc(C(=O)c2ccccc2)cc1)NC(=O)[C@H](Cc1c[nH]c2ccccc12)NC(=O)[C@@H](CCCNC(=N)N)NC(=O)[C@H](Cc1c[nH]cn1)NC(=O)[C@H](CO)NC(=O)[C@H](Cc1c[nH]c2ccccc12)NC(=O)[C@H](CCCNC(=N)N)NC(=O)[C@@H](Cc1ccc2ccccc2c1)NC(=O)CN1CCN(CC(=O)O)CCN(CC(=O)O)CCN(CC(=O)O)CC1)C(N)=O [compound 3021]	0.5 µM
CNCC(=O)N[C@@H](CCCNC(=N)N)C(=O)N[C@@H](Cc1c[nH]c2ccccc12)C(=O)N[C@@H](CO)C(=O)N[C@@H](Cc1c[nH]cn1)C(=O)N[C@H](CCCNC(=N)N)C(=O)N[C@@H](Cc1c[nH]c2ccccc12)C(=O)N[C@@H](Cc1ccc(C(=O)c2ccccc2)cc1)C(=O)N1CCC[C@H]1C(=O)NCCOCCN [compound 3007]	0.22 µM
CNCC(=O)N[C@@H](CCCNC(=N)N)C(=O)N[C@@H](Cc1c[nH]c2ccccc12)C(=O)N[C@@H](CO)C(=O)N[C@@H](Cc1c[nH]cn1)C(=O)N[C@H](CCCNC(=N)N)C(=O)N[C@@H](Cc1c[nH]c2ccccc12)C(=O)N[C@@H](Cc1ccc(C(=O)c2ccccc2)cc1)C(=O)N1CCC[C@H]1C(=O)NCCNC(=O)CN1CCN(CC(=O)O)CCN(CC(=O)O)CCN(CC(=O)O)CC1 [compound 3103]	0.17 ± 0.07 µM
N=C(N)NCCC[C@H](NC(=O)[C@@H](Cc1ccc2ccccc2c1)NC(=O)CN1CCN(CC(=O)O)CCN(CC(=O)O)CCN(CC(=O)O)CC1)C(=O)N[C@@H](Cc1c[nH]c2ccccc12)C(=O)N[C@@H](CO)C(=O)N[C@@H](Cc1c[nH]cn1)C(=O)N[C@H](CCCNC(=N)N)C(=O)N[C@@H](Cc1c[nH]c2ccccc12)C(=O)N[C@@H](Cc1ccc(C(=O)c2ccccc2)cc1)C(=O)O [compound 3064] ({DOTA}-[d2Nal]RWSH[dR]W[Bpa]-OH; N-terminus assumed)	0.67 µM

Same assay, conditions: EFO-27 cells, competition with [125I-Tyr8]BRU-2477, 90 min

SMILES	EC50
N=C(N)NCCC[C@H](NC(=O)[C@@H](Cc1ccc2ccccc2c1)NC(=O)CN1CCN(CC(=O)O)CCN(CC(=O)O)CCN(CC(=O)O)CC1)C(=O)N[C@@H](Cc1c[nH]c2ccccc12)C(=O)N[C@@H](CO)C(=O)N[C@@H](Cc1c[nH]cn1)C(=O)N[C@H](CCCNC(=N)N)C(=O)N[C@@H](Cc1c[nH]c2ccccc12)C(=O)N[C@@H](Cc1ccc(C(=O)c2ccccc2)cc1)C(=O)N1CC[C@H]1C(=O)NNC(N)=O [compound 2993]	0.38 µM
N=C(N)NCCC[C@H](NC(=O)[C@@H](Cc1ccc2ccccc2c1)NC(=O)CN1CCN(CC(=O)O)CCN(CC(=O)O)CCN(CC(=O)O)CC1)C(=O)N[C@@H](Cc1c[nH]c2ccccc12)C(=O)N[C@@H](CO)C(=O)N[C@@H](Cc1c[nH]cn1)C(=O)N[C@H](CCCNC(=N)N)C(=O)N[C@@H](Cc1c[nH]c2ccccc12)C(=O)N[C@@H](Cc1ccc(C(=O)c2ccccc2)cc1)C(=O)N1CCC[C@H]1C(=O)NCC(=O)NN(C(=O)Nc1ccccc1)c1ccccn1 [compound 2989] ({DOTA}-[d2Nal]RWSH[dR]W[Bpa]PG[X2]-NHPh)	1.13 µM
N=C(N)NCCC[C@H](NC(=O)[C@H](Cc1ccc2ccccc2c1)NC(=O)CN1CCN(CC(=O)O)CCN(CC(=O)O)CCN(CC(=O)O)CC1)C(=O)N[C@@H](Cc1c[nH]c2ccccc12)C(=O)N[C@@H](CO)C(=O)N[C@@H](Cc1c[nH]cn1)C(=O)N[C@H](CCCNC(=N)N)C(=O)N[C@@H](Cc1c[nH]c2ccccc12)C(=O)N[C@@H](Cc1ccc(C(=O)c2ccccc2)cc1)C(=O)N1CCC[C@H]1C(=O)NNC(N)=O [BRU-3051]	0.62 µM

Same assay, conditions: Table 5: modifications of amino acids at positions 1 and 2; in vitro binding on EFO-27 cells

SMILES	EC50
CN(CC(=O)N[C@@H](CCCNC(=N)N)C(=O)N[C@@H](Cc1c[nH]c2ccccc12)C(=O)N[C@@H](CO)C(=O)N[C@@H](Cc1c[nH]cn1)C(=O)N[C@H](CCCNC(=N)N)C(=O)N[C@@H](Cc1c[nH]c2ccccc12)C(=O)N[C@@H](Cc1ccc(C(=O)c2ccccc2)cc1)C(=O)N1CCC[C@H]1C(=O)NNC(N)=O)C(=O)CN1CCN(CC(=O)O)CCN(CC(=O)O)CCN(CC(=O)O)CC1 [BRU-2817]	1.7 µM
N=C(N)NCCC[C@H](NC(=O)[C@@H]1Cc2ccccc2CN1C(=O)CNC(=O)CN1CCN(CC(=O)O)CCN(CC(=O)O)CCN(CC(=O)O)CC1)C(=O)N[C@@H](Cc1c[nH]c2ccccc12)C(=O)N[C@@H](CO)C(=O)N[C@@H](Cc1c[nH]cn1)C(=O)N[C@H](CCCNC(=N)N)C(=O)N[C@@H](Cc1c[nH]c2ccccc12)C(=O)N[C@@H](Cc1ccc(C(=O)c2ccccc2)cc1)C(=O)N1CCC[C@H]1C(=O)NNC(N)=O [BRU-3052]	0.55 µM
N=C(N)NCCC[C@@H](NC(=O)[C@H](Cc1c[nH]cn1)NC(=O)[C@H](CO)NC(=O)[C@H](Cc1c[nH]c2ccccc12)NC(=O)[C@H](Cc1c[nH]cn1)NC(=O)[C@H](NC(=O)CNC(=O)CN1CCN(CC(=O)O)CCN(CC(=O)O)CCN(CC(=O)O)CC1)c1cccc2ccccc12)C(=O)N[C@@H](Cc1c[nH]c2ccccc12)C(=O)N[C@@H](Cc1ccc(C(=O)c2ccccc2)cc1)C(=O)N1CCC[C@H]1C(=O)NNC(N)=O [BRU-2770]	2.7 µM
CN(CC(=O)N[C@@H](Cc1ccc(O)cc1)C(=O)N[C@@H](Cc1c[nH]c2ccccc12)C(=O)N[C@@H](CO)C(=O)N[C@@H](Cc1c[nH]cn1)C(=O)N[C@H](CCCNC(=N)N)C(=O)N[C@@H](Cc1c[nH]c2ccccc12)C(=O)N[C@@H](Cc1ccc(C(=O)c2ccccc2)cc1)C(=O)N1CCC[C@H]1C(=O)NNC(N)=O)C(=O)CN1CCN(CC(=O)O)CCN(CC(=O)O)CCN(CC(=O)O)CC1 [BRU-2814] ({DOTA}-[Sar]YWSH[dR]W[Bpa]P[azaGly]-NH2)	2.24 µM
N=C(N)NCCC[C@@H](NC(=O)[C@H](Cc1c[nH]cn1)NC(=O)[C@H](CO)NC(=O)[C@H](Cc1c[nH]c2ccccc12)NC(=O)[C@H](Cc1c[nH]cn1)NC(=O)[C@@H]1CSCN1C(=O)CNC(=O)CN1CCN(CC(=O)O)CCN(CC(=O)O)CCN(CC(=O)O)CC1)C(=O)N[C@@H](Cc1c[nH]c2ccccc12)C(=O)N[C@@H](Cc1ccc(C(=O)c2ccccc2)cc1)C(=O)N1CCC[C@H]1C(=O)NNC(N)=O [BRU-2728]	3.15 µM
N=C(N)NCCC[C@H](NC(=O)[C@H]1Cc2ccccc2CN1C(=O)CNC(=O)CN1CCN(CC(=O)O)CCN(CC(=O)O)CCN(CC(=O)O)CC1)C(=O)N[C@@H](Cc1c[nH]c2ccccc12)C(=O)N[C@@H](CO)C(=O)N[C@@H](Cc1c[nH]cn1)C(=O)N[C@H](CCCNC(=N)N)C(=O)N[C@@H](Cc1c[nH]c2ccccc12)C(=O)N[C@@H](Cc1ccc(C(=O)c2ccccc2)cc1)C(=O)N1CCC[C@H]1C(=O)NNC(N)=O [BRU-3067]	0.51 µM

Same assay, conditions: read-out: EC50 μM; Underivatized LHRH peptides and LHRH peptides with chelator on N-terminus; EFO-27 cells

SMILES	EC50
N=C(N)NCCC[C@H](NC(=O)[C@@H](Cc1ccc2ccccc2c1)NC(=O)CC[C@H](CCCCN)NC(=O)CN1CCN(CC(=O)O)CCN(CC(=O)O)CCN(CC(=O)O)CC1)C(=O)N[C@@H](Cc1c[nH]c2ccccc12)C(=O)N[C@@H](CO)C(=O)N[C@@H](Cc1c[nH]cn1)C(=O)N[C@H](CCCNC(=N)N)C(=O)N[C@@H](Cc1c[nH]c2ccccc12)C(=O)N[C@@H](Cc1ccc(C(=O)c2ccccc2)cc1)C(=O)N1CCC[C@H]1C(=O)NCCOCCOCCN [BRU-3100]	0.14 µM
